# Reference: ChEMBL document CHEMBL1146827, “Synthesis and evaluation as sialidase inhibitors of xylo-configured cyclohexenephosphonates carrying glycerol side-chain mimics” (Bioorg Med Chem Lett, 2004)
# pIC50: −log10 of the molar value.
# Key:
# [1] = Compound was tested for inhibitory activity against sialidase from Clostridium perfringens; n.a. = not active
# [2] = Compound was tested for inhibitory activity against sialidase from Salmonella Typhimurium; design: species or system Salmonella enterica subsp. enterica serovar Typhimurium
# [3] = Compound was tested for inhibitory activity against sialidase from Vibrio cholerae
Structure (SMILES),IC50 [1],pIC50 [2],pIC50 [3]
C=CCO[C@@H]1CC(P(=O)(O)O)=C[C@H](O)[C@H]1NC(C)=O.CCN(CC)CC.CCN(CC)CC,Not Active,> 2.70,2.82
CC(=O)N[C@@H]1[C@@H](O)C=C(P(=O)(O)O)C[C@H]1OCC(O)CO.N.N (stereo partly specified),Not Active,< 2.40,–
CC(=O)N[C@@H]1[C@H](O)C=C(P(=O)(O)O)C[C@H]1OCCO.N.N,Not Active,2.74,2.80
CC(=O)N[C@H]1[C@H](O)CC(P(=O)(O)O)=C[C@@H]1O.N.N,Not Active,3.00,2.74
